According to US4181803A, “Propiophenone derivatives and preparation thereof” (Eisai Co., Ltd., priority 1973, dated 1980):

How the values were obtained:
[1] = test system: motor function and maintenance of righting reflex; assay: animal or person; assay type: in vivo, male d,d-strain mice; conditions: Mus musculus, po, 1 h, read-out: Motor Ataxia, ED50
Procedure: (§1) Male d,d-strain mice weighing 18 to 22 grs. were used for the experiments.
(§2) Groups of each 10 mice were treated orally and intraperitoneally with a wide range of doses of the above-mentioned compounds or saline.
The numerals given in the following Table 1 indicate ED50 values (in mg/kg) which were calculated 60 minutes after the oral administration of the compounds under test.

[2] = test system: isolated smooth muscle preparations; assay: Smooth muscle-relaxing activity on isolated smooth muscle preparations
Excerpt: Additionally, anti-histamine, anti-acetylcholine, anti-serotonin and smooth muscle-relaxing activities of the compounds under test were examined on isolated smooth muscle preparations

mice = assay: Acute toxicity (24-hour mortality); assay type: in vivo; conditions: oral, from Table 1
Procedure: as §1, §2
The mortality ensued during 24 hours after the oral administration was recorded to determine acute toxicity of the compound under test on the mice.

SMILES | ED50 [1] | smooth muscle-relaxant activity (in words) [2] | acute toxicity compared with Compound under control (in words) (mice)
CCc1ccc(C(=O)C(C)CN2CCCCC2)cc1.Cl (stereo not shown) [Compound A, 4'-ethyl-2-methyl-3-piperidino-propiophenone hydrochloride] | 640 mg/kg | strong | slightly stronger
CCCc1ccc(C(=O)C(C)CN2CCCCC2)cc1.Cl (stereo not shown) [Compound B, 4'-n-propyl-2-methyl-3-piperidino-propiophenone hydrochloride] | 800 mg/kg | strong | almost equivalent
Cc1ccc(C(=O)C(C)CN2CCCCC2)cc1.Cl (stereo not shown) [Compound for control, 2,4'-dimethyl-3-piperidino-propiophenone hydrochloride, reference compound] | 800 mg/kg | weak | 
CC(CN1CCCCC1)C(=O)c1ccc(C(C)C)cc1.Cl (stereo not shown) [Compound C, 4'-isopropyl-2-methyl-3-piperidino-propiophenone hydrochloride] | 84 mg/kg | strong | 
